# Where two headings read alike, the source gives them in different places.
# Tests used:
# [1] = Part B multiple-ascending-dose plasma PK in healthy subjects; type: in vivo, human; settings: for Cmax / Tmax / AUC / clearance / half-life / Vd: human, plasma, iv; for AUC: read-out: AUC0–tau; for Vd: read-out: Vss
# Description: This was a 4-part, double-blind, placebo-controlled study (15 cohorts) of DUR administered as a 3-h i.v. infusion (except for cohort 4, in which a 2-h i.v. infusion was evaluated) (see Table S5 in the supplemental material).
# The blank control matrix was made up of human plasma (BioreclamationIVT) diluted 1:1 with SigmaFast (reconstituted protease inhibitor cocktail tablet [product S8820; Sigma-Aldrich, St. Louis, MO] in 10 ml of water) for preparation of calibration standards and QC samples. […] A 100-μl aliquot of the supernatant was transferred to 96-well plates. Samples were diluted further with 400 μl of water, and 5 μl of sample was injected into the LC-MS/MS system for analysis. […] The LLOQ for all analytes was 5 ng/ml.
# AUC was calculated using the log-linear trapezoidal rule.
# Pharmacokinetic parameters were summarized at each assessment time point using the mean ± standard deviation (SD), the percent coefficient of variation (CV), median, minimum, and maximum. Single-ascending-dose study data were assessed for dose proportionality using Cmax and AUC, and accumulation ratios was determined using repeat-dose cohorts. […] Noncompartmental analysis of PK parameters was performed using Phoenix WinNonlin (v6.4) software to determine PK parameters.
# [2] = Protein binding in human plasma; type: in vitro ADME
# [3] = Urine PK (urinary excretion, renal clearance) in healthy subjects; settings: for CL renal: human, urine, intravenous, CLr
# [4] = 0.25 g, part B cohort 9, 0.25 g q6h 3-h i.v. infusion, day 1
# [5] = 0.25 g, part B cohort 9, 0.25 g q6h 3-h i.v. infusion, day 8
# [6] = 0.5 g, part B cohort 10 (4 subjects), 0.5 g q6h 3-h i.v. infusion, day 1
# [7] = 0.5 g, part B cohort 10 (4 subjects), 0.5 g q6h 3-h i.v. infusion, day 8
# [8] = 1 g, part B cohort 11 (5 subjects), 1.0 g q6h 3-h i.v. infusion, day 1
# [9] = 1 g, part B cohort 11 (5 subjects), 1.0 g q6h 3-h i.v. infusion, day 8
# [10] = 2 g, part B cohort 12, 2.0 g q6h 3-h i.v. infusion, day 1
# [11] = 2 g, part B cohort 12, 2.0 g q6h 3-h i.v. infusion, day 8
# [12] = part B cohort 9, 0.25 g q6h 3-h i.v. infusion, day 8
# [13] = part B cohort 10 (4 subjects), 0.5 g q6h 3-h i.v. infusion, day 8
# [14] = part B cohort 11 (5 subjects), 1.0 g q6h 3-h i.v. infusion, day 8
# [15] = part B cohort 12, 2.0 g q6h 3-h i.v. infusion, day 8
# [16] = part C cohort 13, Day 5 (DUR 1 g + sulbactam 1 g)
# [17] = part A cohort 6, single 4 g, n=4
# [18] = part A cohort 7, single 8 g, n=5
# [19] = part A cohort 8 (elderly), single 1 g, n=5
# [20] = part B cohort 9, first 48 hours, dose over 48 hours 2.00 g (8 doses)
# [21] = part B cohort 9, following the final dose on Day 8, 0.250 g
# [22] = part B cohort 10, first 48 hours, dose over 48 hours 4.00 g (8 doses)
# [23] = part B cohort 10, following the final dose on Day 8, 0.500 g
# [24] = part B cohort 11, first 48 hours, dose over 48 hours 8.00 g (8 doses)
# [25] = part B cohort 11, following the final dose on Day 8, 1.000 g
# [26] = part B cohort 12, first 48 hours, dose over 48 hours 16.00 g (8 doses)
# [27] = part B cohort 12, following the final dose on Day 8, 2.000 g
# [28] = part C cohort 13, Day 1 (DUR 1 g alone)
# [29] = part C cohort 14, Day 1 (DUR 1 g alone), mean
# [30] = part D cohort 15, Day 1, DUR + SUL + IMI-CIL q6h, mean, n=10
# [31] = part D cohort 15, Day 11, DUR + SUL + IMI-CIL q6h, mean, n=10
smiles,measurement,setting,value
"CC1=C[C@@H]2CN(C(=O)N2OS(=O)(=O)O)[C@@H]1C(N)=O [DUR, Durlobactam]",Cmax,[1]; [4],6900 ± 1400 ng/mL
same,Tmax,"[1]; 0.25 g, part B cohort 9, 0.25 g q6h 3-h i.v. infusion, day 1, median",3 h
same,AUC,[1]; [4],23100 ± 4900 ng·h/mL
same,Cmax,[1]; [5],7500 ± 1300 ng/mL
same,Tmax,"[1]; 0.25 g, part B cohort 9, 0.25 g q6h 3-h i.v. infusion, day 8, median",2.5 h
same,AUC,[1]; [5],26200 ± 5200 ng·h/mL
same,Cmax,[1]; [6],14900 ± 2200 ng/mL
same,Tmax,"[1]; 0.5 g, part B cohort 10 (4 subjects), 0.5 g q6h 3-h i.v. infusion, day 1, median",3 h
same,AUC,[1]; [6],50300 ± 9000 ng·h/mL
same,Cmax,[1]; [7],14800 ± 1100 ng/mL
same,Tmax,"[1]; 0.5 g, part B cohort 10 (4 subjects), 0.5 g q6h 3-h i.v. infusion, day 8, median",3 h
same,AUC,[1]; [7],53400 ± 4800 ng·h/mL
same,Cmax,[1]; [8],26900 ± 13100 ng/mL
same,Tmax,"[1]; 1 g, part B cohort 11 (5 subjects), 1.0 g q6h 3-h i.v. infusion, day 1, median",2.5 h
same,AUC,[1]; [8],79800 ± 35900 ng·h/mL
same,Cmax,[1]; [9],33400 ± 6000 ng/mL
same,Tmax,"[1]; 1 g, part B cohort 11 (5 subjects), 1.0 g q6h 3-h i.v. infusion, day 8, median",3 h
same,AUC,[1]; [9],109000 ± 13900 ng·h/mL
same,Cmax,[1]; [10],51900 ± 8000 ng/mL
same,Tmax,"[1]; 2 g, part B cohort 12, 2.0 g q6h 3-h i.v. infusion, day 1, median",3 h
same,AUC,[1]; [10],179000 ± 29900 ng·h/mL
same,Cmax,[1]; [11],53300 ± 7800 ng/mL
same,Tmax,"[1]; 2 g, part B cohort 12, 2.0 g q6h 3-h i.v. infusion, day 8, median",3 h
same,AUC,[1]; [11],193000 ± 31200 ng·h/mL
same,clearance,[1]; [12],163 mL/min
same,half-life,[1]; [12],1.9 ± 0.4 h
same,Vd,[1]; [12],18.5 ± 2.9 L
same,clearance,[1]; [13],157 mL/min
same,half-life,[1]; [13],2.6 ± 0.1 h
same,Vd,[1]; [13],18.1 ± 1.8 L
same,clearance,[1]; [14],155 mL/min
same,half-life,[1]; [14],3.5 ± 0.9 h
same,Vd,[1]; [14],17.2 ± 2 L
same,clearance,[1]; [15],177 mL/min
same,half-life,[1]; [15],10.1 ± 2.9 h
same,Vd,[1]; [15],21.8 ± 2 L
same,Accum. index,[1]; [12],1.1 ± 0.07
same,Accum. index,[1]; [13],1.3 ± 0.01
same,Accum. index,[1]; [14],1.5 ± 0.18
same,Accum. index,[1]; [15],3.0 ± 0.69
same,fraction unbound,[2],0.1
same,CL renal,"[3]; 0.25 g, mean, part B cohort 9, following the final dose on Day 8, 0.250 g",84.1 mL/min
same,CL renal,"[3]; 0.25 g, median, part B cohort 9, following the final dose on Day 8, 0.250 g",73.5 mL/min
same,CL renal,"[3]; 0.5 g, mean, part B cohort 10, following the final dose on Day 8, 0.500 g",95.6 mL/min
same,CL renal,"[3]; 0.5 g, median, part B cohort 10, first 48 hours, dose over 48 hours 4.00 g (8 doses)",291 mL/min
same,CL renal,"[3]; 0.5 g, median, part B cohort 10, following the final dose on Day 8, 0.500 g",96.2 mL/min
same,CL renal,"[3]; 1 g, mean, part A cohort 8 (elderly), single 1 g, n=5",55.4 mL/min
same,CL renal,"[3]; 1 g, mean, part B cohort 11, first 48 hours, dose over 48 hours 8.00 g (8 doses)",364 mL/min
same,CL renal,"[3]; 1 g, mean, part B cohort 11, following the final dose on Day 8, 1.000 g",93.6 mL/min
same,CL renal,"[3]; 1 g, median, part A cohort 8 (elderly), single 1 g, n=5",66 mL/min
same,CL renal,"[3]; 1 g, median, part B cohort 11, following the final dose on Day 8, 1.000 g",98 mL/min
same,CL renal,"[3]; 2 g, mean, part B cohort 9, first 48 hours, dose over 48 hours 2.00 g (8 doses)",238 mL/min
same,CL renal,"[3]; 2 g, mean, part B cohort 12, following the final dose on Day 8, 2.000 g",108 mL/min
same,CL renal,"[3]; 2 g, median, part B cohort 9, first 48 hours, dose over 48 hours 2.00 g (8 doses)",220 mL/min
same,CL renal,"[3]; 2 g, median, part B cohort 12, following the final dose on Day 8, 2.000 g",109 mL/min
same,CL renal,"[3]; 4 g, mean, part A cohort 6, single 4 g, n=4",132 mL/min
same,CL renal,"[3]; 4 g, mean, part B cohort 10, first 48 hours, dose over 48 hours 4.00 g (8 doses)",272 mL/min
same,CL renal,"[3]; 4 g, median, part A cohort 6, single 4 g, n=4",134 mL/min
same,CL renal,"[3]; 8 g, mean, part A cohort 7, single 8 g, n=5",109 mL/min
same,CL renal,"[3]; 8 g, median, part A cohort 7, single 8 g, n=5",130 mL/min
same,CL renal,"[3]; 8 g, median, part B cohort 11, first 48 hours, dose over 48 hours 8.00 g (8 doses)",392 mL/min
same,CL renal,"[3]; 16 g, mean, part B cohort 12, first 48 hours, dose over 48 hours 16.00 g (8 doses)",307 mL/min
same,CL renal,"[3]; 16 g, median, part B cohort 12, first 48 hours, dose over 48 hours 16.00 g (8 doses)",307 mL/min
same,CL renal,[3]; [16],81 mL/min
same,"Ae, mean",[3]; [17],3057.384 mg
same,"Ae, median",[3]; [17],3114.55 mg
same,"Fe, mean",[3]; [17],76.4345%
same,"Fe, median",[3]; [17],77.8635%
same,"Ae, mean",[3]; [18],4401.576 mg
same,"Ae, median",[3]; [18],4705.45 mg
same,"Fe, mean",[3]; [18],55.0196%
same,"Fe, median",[3]; [18],58.8180%
same,"Ae, mean",[3]; [19],582.604 mg
same,"Ae, median",[3]; [19],573.87 mg
same,"Fe, mean",[3]; [19],58.2604%
same,"Fe, median",[3]; [19],57.3870%
same,intact drug renally excreted,[3]; part A single dose,approximately 50%
same,"Ae, mean",[3]; [20],953.242 mg
same,"Ae, median",[3]; [20],1031.41 mg
same,"Fe, mean",[3]; [20],47.662%
same,"Fe, median",[3]; [20],51.57%
same,"Ae, mean",[3]; [21],141.184 mg
same,"Ae, median",[3]; [21],151.20 mg
same,"Fe, mean",[3]; [21],56.473%
same,"Fe, median",[3]; [21],60.48%
same,"Ae, mean",[3]; [22],2157.551 mg
same,"Ae, median",[3]; [22],2288.24 mg
same,"Fe, mean",[3]; [22],53.939%
same,"Fe, median",[3]; [22],57.21%
same,"Ae, mean",[3]; [23],337.614 mg
same,"Ae, median",[3]; [23],329.39 mg
same,"Fe, mean",[3]; [23],67.523%
same,"Fe, median",[3]; [23],65.88%
same,"Ae, mean",[3]; [24],4535.949 mg
same,"Ae, median",[3]; [24],5204.73 mg
same,"Fe, mean",[3]; [24],56.699%
same,"Fe, median",[3]; [24],65.06%
same,"Ae, mean",[3]; [25],657.112 mg
same,"Ae, median",[3]; [25],670.87 mg
same,"Fe, mean",[3]; [25],65.711%
same,"Fe, median",[3]; [25],67.09%
same,"Ae, mean",[3]; [26],8856.594 mg
same,"Ae, median",[3]; [26],7879.32 mg
same,"Fe, mean",[3]; [26],55.354%
same,"Fe, median",[3]; [26],49.25%
same,"Ae, mean",[3]; [27],1386.730 mg
same,"Ae, median",[3]; [27],1278.52 mg
same,"Fe, mean",[3]; [27],69.336%
same,"Fe, median",[3]; [27],63.93%
same,Ae,[3]; [28],409.644 (68.690) mg
same,Fe,[3]; [28],40.964 (6.869) %
same,Ae,[3]; [16],499.627 (95.305) mg
same,Fe,[3]; [16],49.963 (9.530) %
same,Ae,[3]; [29],426.643 mg
same,Fe,[3]; [29],42.664%
same,Ae,[3]; [30],3481.42 mg
same,Fe,[3]; [30],43.518%
same,Ae,[3]; [31],491.58 mg
same,Fe,[3]; [31],49.158%
